Patent publication US6914045B2, “Glycopeptide antibiotics” (Wyeth Holdings Corporation, priority 2001, dated 2005)
In brackets after ≈: the same amount, converted by molar mass.

Experiments:
[1] = test system: Staphylococcus aureus-SMITH (GC 4543); experiment: acute lethal infection in mice; type: in vivo; conditions: acute lethal infection, female CD-1 mice, intraperitoneal challenge, intravenous 30 min. after infection, 7 day survival
Method in brief: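 Female CD-1 mice (20+/−2 gm) were infected intraperitoneally with enough bacteria, suspended in trypticase soy broth or hog gastric mucin, to kill untreated controls within 24-48 hr. Compound in saline or 5% dextrose was given intravenously 30 min post-infection, five mice per dose. ED50 came from pooled 7 day survival of 3 tests.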

Streptococcus sp. = experiment: in vitro antibacterial evaluation, MIC by broth dilution; type: cell-based; conditions: broth dilution, 18 hours at 35° C.
Method in brief: (§1)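 Following National Committee for Clinical Laboratory Standards recommendations (M7-A2), susceptibility was measured by dilution in Muller-Hinton II […]. Bacteria were seeded at 5×10^5 CFU/mL against compound concentrations from 64 down to 0.06 μg/mL.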

Staphylococcus sp. = experiment: as above; type: cell-based; conditions: broth dilution, 18 hours at 35° C.
Method in brief: as §1

Enterococcus sp. = experiment: as above; type: cell-based; conditions: broth dilution, 18 hours at 35° C.
Method in brief: as §1

Escherichia coli = experiment: as above; type: cell-based; conditions: 18 hours at 35° C.
Method in brief: as §1

COc1cccc(C2OCC3OC(OC4C(CO)OC(Oc5ccc(CC6NC(=O)C(C(C)c7ccccc7)NC(=O)CNC(=O)C(CO)NC(=O)C(C(O)C7CNC(=N)N7C7OC(CO)C(O)C(O)C7O)NC(=O)C(C(O)C7CNC(=N)N7)NC6=O)cc5)C(O)C4O)C(O)C(O)C3O2)c1 (stereo not drawn) [Example 137, Cyclo[glycyl-β-methylphenylalanyl-O-[4-O-[4,6-O-(3-methoxybenzylidene)hexopyranosyl]-hexopyranosyl]tyrosyl-3-(2-iminoimidazolidin-4-yl)seryl-3-(3-hexopyranosyl-2-iminoimidazolidin-4-yl)serylseryl]]
median effective dose (ED50), Staphylococcus aureus-SMITH (GC 4543) [1]: 0.24 mg/kg | MIC Streptococcus agalactiae (GC 4564) (Streptococcus sp.; Streptococcus agalactiae (GC 4564)): 0.5 mg/L (≈ 0.354 µM) | MIC Streptococcus pneumoniae (ATCC 6301) (Streptococcus sp.; Streptococcus pneumoniae (ATCC 6301)): 0.12 mg/L (≈ 0.0849 µM) | MIC Streptococcus pneumoniae (GC 1894) (Streptococcus sp.; Streptococcus pneumoniae (GC 1894)): <0.06 mg/L | MIC Streptococcus pneumoniae (GC 4565) (Streptococcus sp.; Streptococcus pneumoniae (GC 4565)): 0.25 mg/L (≈ 0.177 µM) | MIC Streptococcus pyogenes (GC 4563) (Streptococcus sp.; Streptococcus pyogenes (GC 4563)): 0.25 mg/L (≈ 0.177 µM) | MIC Streptococcus pneumoniae (ATCC 6301) (Streptococcus sp.; strain ATCC 6301): 0.12 mg/L (≈ 0.0849 µM) | MIC Streptococcus pneumoniae (GC 1894) (Streptococcus sp.; strain GC 1894): <0.06 mg/L | MIC Streptococcus pyogenes (GC 4563) (Streptococcus sp.; strain GC 4563): 0.25 mg/L (≈ 0.177 µM) | MIC Streptococcus agalactiae (GC 4564) (Streptococcus sp.; strain GC 4564): 0.5 mg/L (≈ 0.354 µM) | MIC Streptococcus pneumoniae (GC 4565) (Streptococcus sp.; strain GC 4565): 0.25 mg/L (≈ 0.177 µM) | MIC Staphylococcus aureus (ATCC 29213) (Staphylococcus sp.): 1 to 2 mg/L | MIC Staphylococcus aureus (GC 1131) (Staphylococcus sp.): 2 mg/L (≈ 1.42 µM) | MIC Staphylococcus aureus (GC 3051) (Staphylococcus sp.): 1 to 2 mg/L | MIC Staphylococcus aureus (GC 3053) (Staphylococcus sp.): 2 to 4 mg/L | MIC Staphylococcus aureus (GC 4541) (Staphylococcus sp.): 1 to 2 mg/L | MIC Staphylococcus aureus (GC 4542) (Staphylococcus sp.): 1 to 2 mg/L | MIC Staphylococcus aureus (GC 4544) (Staphylococcus sp.): 2 mg/L (≈ 1.42 µM) | MIC Staphylococcus aureus (GC 4545) (Staphylococcus sp.): 2 to 4 mg/L | MIC Staphylococcus aureus (GC 1131) (Staphylococcus sp.; inoculum 5×10^5 CFU/mL, strain GC 1131): 2 mg/L (≈ 1.42 µM) | MIC Staphylococcus aureus (ATCC 29213) (Staphylococcus sp.; strain ATCC 29213): 1 to 2 mg/L | MIC Staphylococcus aureus (GC 3051) (Staphylococcus sp.; strain GC 3051): 1 to 2 mg/L | MIC Staphylococcus aureus (GC 3053) (Staphylococcus sp.; strain GC 3053): 2 to 4 mg/L | MIC Staphylococcus aureus (GC 4541) (Staphylococcus sp.; strain GC 4541): 1 to 2 mg/L | MIC Staphylococcus aureus (GC 4542) (Staphylococcus sp.; strain GC 4542): 1 to 2 mg/L | MIC Staphylococcus aureus-SMITH (GC 4543) (Staphylococcus sp.; strain GC 4543): 1 to 2 mg/L | MIC Staphylococcus aureus (GC 4544) (Staphylococcus sp.; strain GC 4544): 2 mg/L (≈ 1.42 µM) | MIC Staphylococcus aureus (GC 4545) (Staphylococcus sp.; strain GC 4545): 2 to 4 mg/L | MIC Staphylococcus haemolyticus (GC 4546) (Staphylococcus sp.; strain GC 4546): 1 mg/L (≈ 0.708 µM) | MIC Coagulase Negative Staphylococcus (GC 4547) (Staphylococcus sp.; strain GC 4547): 1 to 2 mg/L | MIC Coagulase Negative Staphylococcus (GC 4548) (Staphylococcus sp.; strain GC 4548): 0.5 to 2 mg/L | MIC Coagulase Negative Staphylococcus (GC 4549) (Staphylococcus sp.; strain GC 4549): 0.5 to 1 mg/L | MIC Coagulase Negative Staphylococcus (GC 4551) (Staphylococcus sp.; strain GC 4551): 1 to 2 mg/L | MIC Coagulase Negative Staphylococcus (GC 6257) (Staphylococcus sp.; strain GC 6257): 1 mg/L (≈ 0.708 µM) | MIC Staphylococcus aureus-SMITH (GC 4543) (Staphylococcus sp.; strain SMITH GC 4543): 1 to 2 mg/L | MIC Enterococcus avium (GC 4558) (Enterococcus sp.; Enterococcus avium (GC 4558)): 4 to 8 mg/L | MIC Enterococcus faecalis (ATCC 29212) (Enterococcus sp.; Enterococcus faecalis (ATCC 29212)): 4 to 8 mg/L | MIC Enterococcus faecalis (GC 2242) (Enterococcus sp.; Enterococcus faecalis (GC 2242)): 4 to 8 mg/L | MIC Enterococcus faecalis (GC 2691) (Enterococcus sp.; Enterococcus faecalis (GC 2691)): 4 to 8 mg/L | MIC Enterococcus faecalis (GC 3059) (Enterococcus sp.; Enterococcus faecalis (GC 3059)): 4 to 8 mg/L | MIC Enterococcus faecalis (GC 4552) (Enterococcus sp.; Enterococcus faecalis (GC 4552)): 4 to 8 mg/L | MIC Enterococcus faecalis (GC 4553) (Enterococcus sp.; Enterococcus faecalis (GC 4553)): 4 to 8 mg/L | MIC Enterococcus faecalis (GC 4554) (Enterococcus sp.; Enterococcus faecalis (GC 4554)): 4 to 8 mg/L | MIC Enterococcus faecalis (GC 6189) (Enterococcus sp.; Enterococcus faecalis (GC 6189)): 4 mg/L (≈ 2.83 µM) | MIC Enterococcus faecium (GC 2243) (Enterococcus sp.; Enterococcus faecium (GC 2243)): 4 to 8 mg/L | MIC Enterococcus faecium (GC 4556) (Enterococcus sp.; Enterococcus faecium (GC 4556)): 4 to 8 mg/L | MIC Enterococcus faecium (GC 4557) (Enterococcus sp.; Enterococcus faecium (GC 4557)): 2 to 4 mg/L | MIC Enterococcus faecalis (ATCC 29212) (Enterococcus sp.; strain ATCC 29212): 4 to 8 mg/L | MIC Enterococcus faecalis (GC 2242) (Enterococcus sp.; strain GC 2242): 4 to 8 mg/L | MIC Enterococcus faecium (GC 2243) (Enterococcus sp.; strain GC 2243): 4 to 8 mg/L | MIC Enterococcus faecalis (GC 2691) (Enterococcus sp.; strain GC 2691): 4 to 8 mg/L | MIC Enterococcus faecalis (GC 3059) (Enterococcus sp.; strain GC 3059): 4 to 8 mg/L | MIC Enterococcus faecalis (GC 4552) (Enterococcus sp.; strain GC 4552): 4 to 8 mg/L | MIC Enterococcus faecalis (GC 4553) (Enterococcus sp.; strain GC 4553): 4 to 8 mg/L | MIC Enterococcus faecalis (GC 4554) (Enterococcus sp.; strain GC 4554): 4 to 8 mg/L | MIC Enterococcus faecium (GC 4556) (Enterococcus sp.; strain GC 4556): 4 to 8 mg/L | MIC Enterococcus faecium (GC 4557) (Enterococcus sp.; strain GC 4557): 2 to 4 mg/L | MIC Enterococcus avium (GC 4558) (Enterococcus sp.; strain GC 4558): 4 to 8 mg/L | MIC Enterococcus faecalis (GC 6189) (Enterococcus sp.; strain GC 6189): 4 mg/L (≈ 2.83 µM) | MIC Escherichia coli (ATCC 25922) (Escherichia coli; strain ATCC 25922): 64 mg/L (≈ 45.3 µM) | MIC Escherichia coli (GC 4559) (Escherichia coli; strain GC 4559): 32 to 64 mg/L | MIC Escherichia coli (GC 4560) (Escherichia coli; strain GC 4560): 1 mg/L (≈ 0.708 µM)
